Data reported in patent publication US9822157B2 (priority 2013, dated 2017).
Like-named read-outs stand apart in the source and are kept apart here.

Columns and labels:
serum iron = assay: In vivo serum iron reduction in mice; set-up: species or system mice (C57-BL6); details: tested in rats or in mice
Description: Instead of rats, mice (C57-BL6) were tested.
A similar experiment was performed with lower doses to assess the dose response of these compounds for inducing serum iron reduction. Methods were as described above in this Example, except for the following parameters: n=4 mice/group, however n=8 for the vehicle, as two groups were pooled. Mice were administered test compounds at two separate dosages (300 nmol/kg or 1000 nmol/kg), via subcutaneous injection. Serum iron levels were assessed as in Example 8 two hours after peptide or vehicle injection. […] Moreover, it was clear that several of the compounds were able to induce maximum effects at dosages as low as 300 nmol/kg.
The route of peptide administration was via subcutaneous injection, unless otherwise indicated as having been via intraperitoneal injection (this is noted on the table by “i.p.” in parentheses following the “yes” or “no” determination).
The peptides were also tested for other pharmacokinetic/pharmacodynamic (PK/PD) parameters using methods commonly know by the skilled artisan. These parameters included determinations regarding stability (hours stable in plasma from the indicated human or rat subject), half-life in mice, and in vitro activity (EC50), tested as described in Example 2.

human ferroportin = target: T1, human ferroportin (Homo sapiens, UniProt Q9NP59); assay type: cell-based; details: for % Activity At 1 uM: at 1 uM peptide, monomers and disulphide-linked dimers
T1 sequence (Q9NP59 1-571): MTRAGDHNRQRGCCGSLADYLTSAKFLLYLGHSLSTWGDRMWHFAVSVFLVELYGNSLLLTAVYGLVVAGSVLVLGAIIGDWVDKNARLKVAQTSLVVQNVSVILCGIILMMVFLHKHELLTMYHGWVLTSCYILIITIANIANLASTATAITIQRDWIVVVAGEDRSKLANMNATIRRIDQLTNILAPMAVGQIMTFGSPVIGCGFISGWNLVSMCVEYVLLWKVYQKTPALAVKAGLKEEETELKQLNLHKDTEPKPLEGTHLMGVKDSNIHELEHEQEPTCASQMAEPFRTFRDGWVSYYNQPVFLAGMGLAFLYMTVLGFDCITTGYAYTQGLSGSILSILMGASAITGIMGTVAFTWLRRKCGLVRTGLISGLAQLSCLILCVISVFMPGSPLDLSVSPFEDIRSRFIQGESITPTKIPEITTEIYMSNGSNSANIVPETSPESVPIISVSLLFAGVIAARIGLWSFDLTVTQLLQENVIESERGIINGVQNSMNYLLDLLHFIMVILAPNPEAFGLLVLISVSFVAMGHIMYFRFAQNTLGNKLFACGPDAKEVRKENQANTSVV
Description: The cDNA encoding the human ferroportin (SLC40A1) was cloned from a cDNA clone from Origene (NM_014585). The DNA encoding the ferroportin was amplified by PCR using primers also encoding terminal restriction sites for subcloning, but without the termination codon. The ferroportin receptor was subcloned into a mammalian GFP expression vector containing a neomycin (G418) resistance marker in such that the reading frame of the ferroportin was fused in frame with the GFP protein. The fidelity of the DNA encoding the protein was confirmed by DNA sequencing. HEK293 cells were used for transfection of the ferroportin-GFP receptor expression plasmid. The cells were grown according to standard protocol in growth medium and transfected with the plasmids using Lipofectamine (manufacturer's protocol, Invitrogen). […] The cells were propagated and frozen in aliquots.
A retro inverse peptide is a peptide with a reversed sequence in all D amino acids. […] The EC50 of these reference compounds for ferroportin degradation was determined according to the activity assay described above.

[1] = cysteine replacement scan of Mini-Hepcidin derivatives
[2] = read-out: EC50 (n = 3), cells printed in μM, in vitro activity as in Example 2, peptide monomers and dimers dimerized through a single disulphide linkage, n = 3
[3] = read-out: EC50 (nM) (n = 3), in vitro activity as in Example 2, peptide monomers and dimers dimerized through a single disulphide linkage, n = 3
[4] = Hepcidin analog peptides, read-out: Potency EC50
[5] = read-out: EC50 (nM) (n > 3), alanine scan of Compound 18
[6] = read-out: EC50 (n > 3), alanine scan of Compound 1
[7] = read-out: EC50 (nM) (n > 3), alanine scan of Compound 1

## Isovaleric acid-DTHFPCIQFGPRSKGWVCK-NH2 [Compound 10]
Serum iron; 1000 nmol/kg
  In Vivo Activity (s.c.) 1000 nmol/kg: Minor

## Hy-DTHFPIC(1)IFC(2)C(3)GC(2)C(4)HRSKC(3)GMC(4)C(1)KT-OH [Hepcidin, reference compound]
Serum iron; 300 nmol/kg
  In Vivo Activity (s.c.) 300 nmol/kg: Yes
Serum iron; 1000 nmol/kg
  In Vivo Activity (s.c.) 1000 nmol/kg: Yes

## Isovaleric acid-DTHFPCIIFEPRSKGWVCK-NH2 [Compound 105]
Serum iron; 300 nmol/kg
  In Vivo Activity (s.c.) 300 nmol/kg: Yes
Serum iron; 1000 nmol/kg
  In Vivo Activity (s.c.) 1000 nmol/kg: Yes

## H-DTHFPIICI-NH2 [Compound 275]
Human ferroportin; Hepcidin analog peptides
  Potency EC50 (nM): Inactive
Human ferroportin; [1]
  EC50 (nM) (n > 3): Not active

## H-DTHFPCIF-NH2 [Compound 293]
Human ferroportin
  % Activity At 1 uM: 52%

## H-DTHFPCIIK-NH2 [Compound 304]
Human ferroportin
  % Activity At 1 uM: 55%
Human ferroportin; [2]
  EC50: > 1 µM

## H-DTHFPCIKFF-NH2 [Compound 297]
Human ferroportin
  % Activity At 1 uM: 64%
Human ferroportin; [3]
  EC50: > 0.3 µM

## Isovaleric acid-DTHFPAIIF-NH2 [Compound 289]
Human ferroportin; Hepcidin analog peptides
  Potency EC50 (nM): Inactive

## H-DTHFPICIFGPRSKGAVCM-NH2 (cysteine pairing not given here) [Compound 66]
Human ferroportin; [4]
  EC50: 0.52 µM
Human ferroportin; [5]
  EC50: 0.52 µM

## H-THFPCIIFGPRSKGWVCM-NH2 (cysteine pairing not given here) [Compound 132]
Human ferroportin; [4]
  EC50: > 1 µM

## H-DTHFAICIFGPRSKGWVCM-NH2 (cysteine pairing not given here) [Compound 26]
Human ferroportin; [4]
  EC50: 0.147 µM
Human ferroportin; [5]
  EC50: 0.147 µM

## H-ATHFPCIIF-NH2 [Compound 284]
Human ferroportin; [4]
  EC50: > 1 µM
Human ferroportin; [6]
  EC50: > 1 µM

## H-DTHFPICIFGPASKGWVCM-NH2 (cysteine pairing not given here) [Compound 34]
Human ferroportin; [4]
  EC50: 0.206 µM
Human ferroportin; [5]
  EC50: 0.206 µM

## H-DTHFPIAIFAAGICI-NH2 [Compound 269]
Human ferroportin; Hepcidin analog peptides
  Potency EC50 (nM): Inactive
Human ferroportin; [1]
  EC50 (nM) (n > 3): Not active

## H-DTHFPCIIFGPRSRGVCK-NH2 (cysteine pairing not given here) [Compound 84]
Human ferroportin; [4]
  EC50: > 1 µM

## H-EDTHFPCIIFGPRSKGWVCK-NH2 (cysteine pairing not given here) [Compound 103]
Human ferroportin; [4]
  EC50: > 1 µM

## Isovaleric acid-DTHFPCIIFGPRSRGWVCK-NH2 [Compound 3]
Serum iron; 300 nmol/kg, i.p.
  In Vivo Activity 300 nmol/kg (i.p.): No (i.p.)
Serum iron; 1000 nmol/kg, i.p.
  In Vivo Activity 1000 nmol/kg (i.p.): No (i.p.)

## H-DTHAPCIIF-NH2 [Compound 282]
Human ferroportin; Hepcidin analog peptides
  Potency EC50 (nM): Inactive
Human ferroportin; alanine scan of Compound 1
  EC50 (nM) (n > 3): Not active

## H-DTHFPCIIFGPRSKGWVCK-NH2 (cysteine pairing not given here) [Compound 86]
Human ferroportin; [4]
  EC50: > 1 µM

## H-DTHFPCIIFGPRARGWVCK-NH2 (cysteine pairing not given here) [Compound 87]
Human ferroportin; [4]
  EC50: > 1 µM

## Isovaleric acid-DTHFPCIKFEPRSKGCK-NH2 [Compound 184]
Serum iron; 300 nmol/kg
  In Vivo Activity (s.c.) 300 nmol/kg: Yes
Serum iron; 1000 nmol/kg
  In Vivo Activity (s.c.) 1000 nmol/kg: Yes

## H-DTHFPCAIF-NH2 [Compound 279]
Human ferroportin; [4]
  EC50: > 1 µM
Human ferroportin; [6]
  EC50: > 1 µM

## H-THFPCIIFGPRSKGWVCK-NH2 (cysteine pairing not given here) [Compound 97]
Human ferroportin; Hepcidin analog peptides
  Potency EC50 (nM): Inactive

## H-DTHFPCRRFGPRSKGWVC-NH2 (cysteine pairing not given here) [Compound 70]
Human ferroportin; Hepcidin analog peptides
  Potency EC50 (nM): Inactive

## Hy-ETHFPCIIF-NH2 [Compound 300]
Human ferroportin
  % Activity At 1 uM: 77%
Human ferroportin; [3]
  EC50: > 0.3 µM

## H-DTHFPCIAF-NH2 [Compound 51]
Human ferroportin; [4]
  EC50: 0.382 µM
Human ferroportin; [7]
  EC50: 0.382 µM

## H-HFPCIIFGPRSKGWVCM-NH2 (cysteine pairing not given here) [Compound 133]
Human ferroportin; [4]
  EC50: > 1 µM

## H-DTHFPIAIFAICI-NH2 [Compound 271]
Human ferroportin; Hepcidin analog peptides
  Potency EC50 (nM): Inactive
Human ferroportin; [1]
  EC50 (nM) (n > 3): Not active

## H-EDTHFPCIIFGPRSKGWVCM-NH2 (cysteine pairing not given here) [Compound 137]
Human ferroportin; [4]
  EC50: 0.873 µM

## H-DTHFPIAIFAAICI-NH2 [Compound 270]
Human ferroportin; Hepcidin analog peptides
  Potency EC50 (nM): Inactive
Human ferroportin; [1]
  EC50 (nM) (n > 3): Not active

## H-DTHFPICIAGPRSKGWVCM-NH2 (cysteine pairing not given here) [Compound 67]
Human ferroportin; [4]
  EC50: 2.47 µM
Human ferroportin; [5]
  EC50: 2.47 µM

## Hy-DTHF-(D)--Ala-CIIF-NH2 [Compound 281]
Human ferroportin; Hepcidin analog peptides
  Potency EC50 (nM): Inactive
Human ferroportin; alanine scan of Compound 1
  EC50 (nM) (n > 3): Not active

## H-DAHFPCIIF-NH2 [Compound 52]
Human ferroportin; [4]
  EC50: 0.388 µM
Human ferroportin; [7]
  EC50: 0.388 µM

## H-DTHFPCIYFGPRSKGWVCK-NH2 (cysteine pairing not given here) [Compound 85]
Human ferroportin; [4]
  EC50: 0.705 µM

## H-DTHFPICIFGPHRSKGWVCM-NH2 (cysteine pairing not given here) [Compound 27]
Human ferroportin; [4]
  EC50: 0.149 µM

## Isovaleric acid-DTHFPCIKFGPRSKGWVCK-NH2 [Compound 9]
Serum iron; 300 nmol/kg
  In Vivo Activity (s.c.) 300 nmol/kg: Yes
Serum iron; 1000 nmol/kg
  In Vivo Activity (s.c.) 1000 nmol/kg: Yes

## H-DTHICIAIF-NH2 [Compound 276]
Human ferroportin; Hepcidin analog peptides
  Potency EC50 (nM): Inactive
Human ferroportin; [1]
  EC50 (nM) (n > 3): Not active

## Isovaleric acid-DTHFPICIFGPRS-K(PEG8)-GWVC-NH2 [Compound 176]
Serum iron; 300 nmol/kg
  In Vivo Activity (s.c.) 300 nmol/kg: Yes

## Isovaleric acid-DTHFPCIKF-K(PEG8)-PRSKGWVCK-NH2 [Compound 150]
Serum iron; 300 nmol/kg
  In Vivo Activity (s.c.) 300 nmol/kg: Yes

## H-DTHFPICIFGPRSKAWVCM-NH2 (cysteine pairing not given here) [Compound 31]
Human ferroportin; [4]
  EC50: 0.175 µM
Human ferroportin; [5]
  EC50: 0.175 µM

## H-DTHFPCILF-NH2 [Compound 308]
Human ferroportin
  % Activity At 1 uM: 89%
Human ferroportin; [3]
  EC50: > 0.3 µM

## Isovaleric acid-DTHAPCIKFEPRSKGWECK-NH2 [Compound 243]
Human ferroportin; Hepcidin analog peptides
  Potency EC50 (nM): Inactive

## Isovaleric acid-DTHFPCIEFGPRSKGWVCK-NH2 [Compound 15]
Serum iron; 1000 nmol/kg
  In Vivo Activity (s.c.) 1000 nmol/kg: Minor

## H-DTKFPCIIF-NH2 [Compound 302]
Human ferroportin
  % Activity At 1 uM: 60%
Human ferroportin; [2]
  EC50: > 1 µM

## H-DTHFPIAIICI-NH2 [Compound 273]
Human ferroportin; Hepcidin analog peptides
  Potency EC50 (nM): Inactive
Human ferroportin; [1]
  EC50 (nM) (n > 3): Not active

## H-DTHFPCISFGPRSKGWVCM-NH2 (cysteine pairing not given here) [Compound 135]
Human ferroportin; [4]
  EC50: 0.545 µM

## H-HFPCIIFGPRSKGWVCK-NH2 (cysteine pairing not given here) [Compound 99]
Human ferroportin; Hepcidin analog peptides
  Potency EC50 (nM): Inactive

## Isovaleric acid-DTHFPCIIFGPRSKGCK-NH2 [Compound 115]
Serum iron; 1000 nmol/kg
  In Vivo Activity (s.c.) 1000 nmol/kg: No

## Isovaleric acid-DTHFPCIIF-NH2 [Compound 288]
Human ferroportin
  % Activity At 1 uM: 100%

## H-DTAFPICIFGPRSKGWVCM-NH2 (cysteine pairing not given here) [Compound 60]
Human ferroportin; [4]
  EC50: 0.498 µM
Human ferroportin; [5]
  EC50: 0.498 µM

## H-DTHFPICAFGPRSKGWVCM-NH2 (cysteine pairing not given here) [Compound 68]
Human ferroportin; [4]
  EC50: > 10 µM
Human ferroportin; read-out: EC50 (n > 3), alanine scan of Compound 18
  EC50: > 10 µM

## H-DTHFPCIKFGPRSKGWVCM-NH2 (cysteine pairing not given here) [Compound 136]
Human ferroportin; [4]
  EC50: 0.669 µM

## H-DTHFPCIRFGPRSRGWVCK-NH2 (cysteine pairing not given here) [Compound 81]
Human ferroportin; [4]
  EC50: > 1 µM

## H-DTHAPICIFGPRSKGWVCM-NH2 (cysteine pairing not given here) [Compound 38]
Human ferroportin; [4]
  EC50: 0.254 µM
Human ferroportin; [5]
  EC50: 0.254 µM

## H-DTHFPCIIFK-NH2 [Compound 55]
Human ferroportin; [4]
  EC50: 0.419 µM

## H-DTHFPCILK-NH2 [Compound 309]
Human ferroportin
  % Activity At 1 uM: 55%
Human ferroportin; [3]
  EC50: > 0.3 µM
